PMC8592027, “Structure-Guided Design of D-Galactal Derivatives with High Affinity and Selectivity for the Galectin-8 N-Terminal Domain” (ACS Medicinal Chemistry Letters, 2021)
“Also recorded” adds a separate entry of the source. Where two headings read alike, the source gives them in different places.

What was measured:
K562 cancer cell line = experiment: MTS metabolic activity (cytotoxicity) assay, K562; assay type: cell-based; conditions: concentrations 1 to 100 μM, 24 hours
Description: (§1) We have investigated the cytotoxicity of the compounds 1, 6a, and 6c via a (3-(4,5-dimethylthiazol-2-yl)-5-(3-carboxymethoxyphenyl)-2-(4-sulfophenyl)-2H-tetrazolium) (MTS) assay in K562 and MDA-MB-231 cancer cell lines to establish the direct antitumor activity of compounds, as well as human peripheral blood mononuclear cells (PBMCs), to evaluate their safety.
(§2) Metabolic activity assay:
(§3) The metabolic activities of the cell lines were determined using the CellTiter 96 Aqueous One Solution cell proliferation assay (MTS Reagents, Promega, Madison, WI, USA), according to the manufacturer instructions. Briefly, the cells were treated with the selected compounds in 0.1% dimethyl sulfoxide (DMSO; vehicle), 0.1% DMSO (control vehicle), or medium (control) and seeded at a cell density of 5,500 cells/well (MDA-MB-231 cells) or 4 x 10^4 cells/well (K562 cells), 7000 cells/well (HepG2 cells) or 1 x 10^5 cells/well (human PBMCs) in duplicates (MDA-MB-231, K562, and […]) or triplicates for HepG2 cells (100 µL), in sterile 96-well plates. For the MDA-MB-231 and HepG2, the cells were left to adhere overnight before adding the compounds. The plates were then incubated for 24 hours (48 hours for HepG2), after which 15 µL of MTS reagent was added to each well. After 30-90 minute of incubation, the absorbance was measured at 492 nm using a microplate reader (Synergy HTX Multi-Mode; BioTek Instruments, Inc., VT, USA). […]
(§4) Bead Array Human inflammatory cytokine Kit (content: IL-1, IL-6, IL-8, IL-10, IL-12p). The flow cytometric analyses were performed on an Attune NxT flow cytometer (Thermo Fisher Scientific, […]
(§5) Data are represented as means ± standard deviation (SD) from three representative independent experiments.
(§6) All experiments were performed at least twice, with average values expressed as means ± SD. All data were analyzed with the statistical software GraphPad Prism 8.0 (GraphPad Software, Inc., CA, USA). by one-way ANOVA followed with Dunnett’s multiple compar ison test. Differences were considered non-significant for p > 0.05, and significant (*) for p < 0.05. […]

[1] = tested on: IL-6 secretion from MDA-MB-231 cells; experiment: Multiplexed cytokine assay, IL-6 secretion; assay type: cell-based, human; conditions: 24 hours, vs untreated cells
Description: (§7) Figure 5 Effect of compounds 1 and 6a on the secretion of IL-6 and IL-8 expressed in pg/mL. The effects were measured after incubating the cells with the compounds at 10 and 100 μM. Compounds 1 and 6a reduce the secretion of IL-6 and IL-8 in a dose-dependent manner at 100 and 10 μM. Results shown are means ± SEM of three independent experiments. ns, not significant (p > 0.05); *p < 0.05 versus untreated controls.
(§8) Metabolic activity assay: […]
(§9) Briefly, the cells were treated with the selected compounds in 0.1% dimethyl sulfoxide (DMSO; vehicle), 0.1% DMSO (control vehicle), or medium (control) and seeded at a cell density of 5,500 cells/well (MDA-MB-231 cells) or 4 x 10^4 cells/well (K562 cells), 7000 cells/well (HepG2 cells) or 1 x 10^5 cells/well (human PBMCs) in duplicates (MDA-MB-231, K562, and […]) or triplicates for HepG2 cells (100 µL), in sterile 96-well plates. For the MDA-MB-231 and HepG2, the cells were left to adhere overnight before adding the compounds. The plates were then incubated for 24 hours (48 hours for HepG2), after which 15 µL of MTS reagent was added to each well. […]
(§10) HTX Multi-Mode; BioTek Instruments, Inc., VT, USA).
(§11) Multiplexed cytokine assay:
(§12) MDA-MB-231 cells were seeded in 96-well flat-bottom plates at a density of 2 x 10^4 cells/well in 100 µL of medium and allowed to adhere for 24 hours at 37 °C and 5% CO2. The medium was then replaced by a fresh medium containing the desired concentrations of compounds 1 and 6a, after which the cells were cells incubated again for 24 hours at 37 °C and 5% CO2. Cell-free supernatants were collected and stored at – 80 °C before the analysis. The cytokines secretion was assessed by BD Cytometric Bead Array Human inflammatory cytokine Kit (content: IL-1, IL-6, IL-8, IL-10, IL-12p). The flow cytometric analyses were performed on an Attune NxT flow cytometer (Thermo Fisher Scientific, Waltham, MA, USA). Standard curves were generated using recombinant cytokines provided in the kit, and the data were analyzed with FlowJo software (Tree Star, Inc., Ashland, OR). The results are expressed in pg/mL. Data are represented as means ± standard deviation (SD) from three representative independent experiments.
(§13) All experiments were performed at least twice, with average values expressed as means ± SD. All data were analyzed with the statistical software GraphPad Prism 8.0 (GraphPad Software, Inc., CA, USA). by one-way ANOVA followed with Dunnett’s multiple compar ison test. Differences were considered non-significant for p > 0.05, and significant (*) for p < 0.05.

[2] = tested on: IL-8 secretion from MDA-MB-231 cells; experiment: Multiplexed cytokine assay, IL-8 secretion; assay type: cell-based, human; conditions: 24 hours, vs untreated cells
Description: as §7, §8, §9, §10, §11, §12, §13

[3] = biological target: T1, galectin-8N (galectin-8 N-terminal domain) (Homo sapiens, UniProt O00214); experiment: Competitive fluorescence polarization assay, galectin-8N; assay type: binding; conditions: for Kd: mean ± SEM of n = 4–8
T1 construct: selective ligand for the galectin-8 N-terminal domain (galectin-8N); made in house
T1 sequence (O00214 19-152 limits assumed): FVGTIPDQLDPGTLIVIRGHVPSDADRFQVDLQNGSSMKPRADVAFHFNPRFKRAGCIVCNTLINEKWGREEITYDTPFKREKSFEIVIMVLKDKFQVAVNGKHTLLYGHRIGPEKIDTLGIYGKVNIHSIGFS
Description: All synthesized D-galactal derivatives had higher binding affinities for galectin-8N than D-galactal 3.
(§14) 1. Competitive fluorescence polarization experiments:
(§15) Human galectins -1, -3, -4N, -4C, -7, -8N, -9N, and -9C were expressed and purified as previously described 30,41. Fluorescence polarisation experiments were performed using the PHERAstar FS plat e reader (software version 2.10 R3), and the fluorescence anisotropy of fluorescein tagged probes was measured by excitation at 485 nm and emission at 520 nm. The specific conditions for galectins -1, -3, -4N, -4C, -7, -8N, -9N, and -9C were kept as report ed30,41,42. The synthesised compounds were dissolved in pure DMSO at 20 mM concentration and diluted in PBS to 3-6 different concentrations, and each concentration was tested in duplicate. The highest inhibitor concentrations tested were 1.5 mM. The

[4] = tested on: MDA-MB-231 cancer cell line; experiment: MTS metabolic activity (cytotoxicity) assay, MDA-MB-231; assay type: cell-based, human; conditions: concentrations 1 to 100 μM, 24 hours
Description: as §1, §2, §3, §4, §5, §6

[5] = tested on: human peripheral blood mononuclear cells (PBMCs); experiment: MTS metabolic activity (cytotoxicity) assay, PBMCs; assay type: cell-based; conditions: concentrations up to 100 μM, 24 hours
Description: as §1, §2, §3, §4, §5, §6

[6] = biological target: T1, galectin-8N (galectin-8 N-terminal domain); conditions: cited from earlier work
[7] = biological target: T2, galectin-9N (N-terminal domain) (Homo sapiens, UniProt O00182); experiment: Competitive fluorescence polarization assay, galectin-9N; assay type: binding; conditions: mean ± SEM of n = 4–8
T2 construct: galectins (N = N-terminal domain, C = C-terminal domain); made in house
T2 sequence (O00182 17-148 limits assumed): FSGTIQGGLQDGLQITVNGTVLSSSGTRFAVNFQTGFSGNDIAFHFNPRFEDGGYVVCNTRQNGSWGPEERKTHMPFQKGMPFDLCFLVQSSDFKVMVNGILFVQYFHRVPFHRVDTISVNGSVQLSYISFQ
Description: as §14, §15

galectin-3 = biological target: T3, galectin-3 (Homo sapiens, UniProt P17931); experiment: Competitive fluorescence polarization assay, galectin-3; assay type: binding; conditions: mean ± SEM of n = 4–8
T3 construct: made in house
T3 sequence (P17931 whole entry): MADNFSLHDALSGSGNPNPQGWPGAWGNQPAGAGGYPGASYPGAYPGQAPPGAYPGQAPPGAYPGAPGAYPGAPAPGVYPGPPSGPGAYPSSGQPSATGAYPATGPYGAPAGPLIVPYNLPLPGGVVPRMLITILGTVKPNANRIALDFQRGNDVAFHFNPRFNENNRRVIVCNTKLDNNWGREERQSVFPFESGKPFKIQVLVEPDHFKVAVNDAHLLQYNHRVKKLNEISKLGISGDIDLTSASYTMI
Description: as §14, §15

[8] = biological target: T4, galectin-4C (C-terminal domain) (Homo sapiens, UniProt P56470); experiment: Competitive fluorescence polarization assay, galectin-4C; assay type: binding; conditions: mean ± SEM of n = 4–8
T4 construct: galectins (N = N-terminal domain, C = C-terminal domain); made in house
T4 sequence (P56470 194-323 limits assumed): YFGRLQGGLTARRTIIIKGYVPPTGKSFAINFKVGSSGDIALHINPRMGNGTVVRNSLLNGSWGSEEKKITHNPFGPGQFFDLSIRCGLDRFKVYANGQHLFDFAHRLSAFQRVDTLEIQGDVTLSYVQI
Description: as §14, §15

[9] = biological target: T5, galectin-4N (N-terminal domain) (Homo sapiens, UniProt P56470); experiment: Competitive fluorescence polarization assay, galectin-4N; assay type: binding; conditions: mean ± SEM of n = 4–8
T5 construct: galectins (N = N-terminal domain, C = C-terminal domain); made in house
T5 sequence (P56470 19-150 limits assumed): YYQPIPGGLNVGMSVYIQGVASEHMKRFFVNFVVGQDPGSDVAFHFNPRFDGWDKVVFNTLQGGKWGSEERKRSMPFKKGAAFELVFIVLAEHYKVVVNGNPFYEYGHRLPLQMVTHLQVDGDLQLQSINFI
Description: as §14, §15

[10] = biological target: T6, galectin-9C (C-terminal domain) (Homo sapiens, UniProt O00182); experiment: Competitive fluorescence polarization assay, galectin-9C; assay type: binding; conditions: mean ± SEM of n = 4–8
T6 construct: galectins (N = N-terminal domain, C = C-terminal domain); made in house
T6 sequence (O00182 227-355 limits assumed): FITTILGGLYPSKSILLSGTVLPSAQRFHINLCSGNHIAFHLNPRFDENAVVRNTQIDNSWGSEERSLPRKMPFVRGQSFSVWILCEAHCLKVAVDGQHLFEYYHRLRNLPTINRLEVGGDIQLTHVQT
Description: as §14, §15

[11] = biological target: T7, galectin-8C (C-terminal domain) (Homo sapiens, UniProt O00214); experiment: Competitive fluorescence polarization assay, galectin-8C; assay type: binding; conditions: mean ± SEM of n = 4–8
T7 construct: galectins (N = N-terminal domain, C = C-terminal domain)
T7 sequence (O00214 187-317 limits assumed): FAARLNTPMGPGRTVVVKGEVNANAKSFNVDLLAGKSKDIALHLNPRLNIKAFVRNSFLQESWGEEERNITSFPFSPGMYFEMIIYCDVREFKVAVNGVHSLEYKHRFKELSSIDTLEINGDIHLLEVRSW

galectin-1 = biological target: T8, galectin-1 (Homo sapiens, UniProt P09382); experiment: Competitive fluorescence polarization assay, galectin-1; assay type: binding; conditions: mean ± SEM of n = 4–8
T8 construct: made in house
T8 sequence (P09382 whole entry): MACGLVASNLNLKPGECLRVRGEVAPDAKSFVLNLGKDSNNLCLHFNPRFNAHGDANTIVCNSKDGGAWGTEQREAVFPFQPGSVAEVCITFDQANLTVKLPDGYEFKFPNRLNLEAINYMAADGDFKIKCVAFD
Description: as §14, §15

galectin-2 = biological target: T9, galectin-2 (Homo sapiens, UniProt P05162); experiment: Competitive fluorescence polarization assay, galectin-2; assay type: binding; conditions: mean ± SEM of n = 4–8
T9 sequence (P05162 1-132): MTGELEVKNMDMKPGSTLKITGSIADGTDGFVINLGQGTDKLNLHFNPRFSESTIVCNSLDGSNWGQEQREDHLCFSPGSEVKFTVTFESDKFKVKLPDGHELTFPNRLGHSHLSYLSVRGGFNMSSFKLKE

galectin-7 = biological target: T10, galectin-7 (Homo sapiens, UniProt P47929); experiment: Competitive fluorescence polarization assay, galectin-7; assay type: binding; conditions: mean ± SEM of n = 4–8
T10 construct: made in house
T10 sequence (P47929 whole entry): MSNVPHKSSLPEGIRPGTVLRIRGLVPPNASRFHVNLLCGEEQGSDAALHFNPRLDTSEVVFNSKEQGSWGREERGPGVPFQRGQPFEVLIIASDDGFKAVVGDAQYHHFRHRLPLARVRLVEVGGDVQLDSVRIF
Description: as §14, §15

| Kd [7] [µM] | Kd (galectin-3) [µM] | Kd [8] [µM] | Kd [9] [µM] | Kd [10] [µM] | Kd [11] [µM] | Kd [3] [µM] | Kd (galectin-1) [µM] | Kd (galectin-2) [µM] | Compound | also measured |
| --- | --- | --- | --- | --- | --- | --- | --- | --- | --- | --- |
| – | – | – | – | – | – | – | – | – | Cn1c(CO[C@@H]2[C@@H](O)[C@@H](Sc3ccc(Cl)c(Cl)c3)O[C@H](CO)[C@@H]2O)nc2ccc(C(=O)O)cc21 [compound 1, reference compound] | cell viability (MTS), K562 (K562 cancer cell line): None of the compounds decreased the viability; reduction in IL-6 secretion ([1]; 10 μM, effect not significant): about 15%; reduction of IL-6 secretion ([1]; 100 μM): about 65%; reduction in IL-8 secretion ([2]; 10 μM, effect not significant): ~20%; reduction of IL-8 secretion ([2]; 100 μM): about 55%; affinity for galectin-8N relative to that of compound 6a [3]: about 25 fold; cell viability (MTS), MDA-MB-231 [4]: None of the compounds decreased the viability; also recorded: no effect on the viability; direct cytotoxicity (MTS), PBMCs [5]: lack of direct cytotoxicity |
| – | – | – | – | – | – | – | – | – | OC[C@H]1Oc2cc(Cc3ccc(F)cc3)cc3c2[C@@H](OC3)[C@H]1O [compound 2] | selectivity for galectin-8N over galectin-1 [6]: about 2 fold; selectivity for galectin-8N over galectin-3 [6]: 23 fold |
| > 1500 | 3300 ± 650 | 5300 | 2400 ± 13 | 4800 | 4100 ± 470 | 1300 ± 72 | 1600 ± 140 | – | OC[C@H]1OC=C[C@@H](O)[C@H]1O [compound 3, D-galactal] | higher affinity for galectin-8N compared to the methyl β-D-galactopyranoside [3]: 5 fold |
| 1000 ± 51 | 1700 ± 40 | 3700 ± 250 | 1300 ± 12 | > 1500 | > 1500 | 230 ± 16 | > 1500 | > 1500 | COC(=O)c1ccc2ccc(CO[C@@H]3C=CO[C@H](CO)[C@@H]3O)nc2c1 [compound 8] | – |
| 1800 ± 160 | 590 ± 78 | 2800 ± 770 | > 1500 | > 1500 | 4700 ± 22 | 48 ± 6 | 3600 | 1100 ± 200 | O=C(O)c1ccc2ccc(CO[C@@H]3C=CO[C@H](CO)[C@@H]3O)nc2c1 [compound 9] | Kd (galectin-7): > 1500 µM |
| – | – | – | – | – | – | – | – | – | methyl β-D-galactomalonyl phenyl ester | Kd [6]: 5.7 µM |
